Results on two compounds are retold here after EPA's ToxValDB 9.5 (doi:10.2903/j.efsa.2008.176r).

≈ marks a conversion by molar mass, not a printed value.

For one data set, the system named is Rattus norvegicus. The settings on record: oral; for LD50: acute, mortality.
The test system of a further data set is Colinus virginianus. Particulars: oral.
In another data set the test system is Apis mellifera. The settings on record: acute; duration: 48 hours; oral; unspecified; mortality.
For another data set, the system named is Mus musculus. Particulars: developmental; development.
Another data set concerns Daphnia magna. The settings on record: chronic/long-term; duration: 21 days; reproduction.
The next data set relates to Hypoaspis aculeifer. The settings on record: chronic/long-term.
The subject of the next data set is Canidae. Particulars: chronic; duration: 1 years; oral; Dog Other; histopathology: nonneoplastic.
The next data set relates to Oryctolagus sp. The settings on record: developmental; development.
[1] abbreviates: reproduction developmental, diet.

Compound `NC(Cc1ncn[nH]1)C(=O)O` (stereo not drawn) [1,2,4-Triazole-3-alanine] came in with an LD50 with Rattus norvegicus of more than 5000 mg/kg-day. The compound further had an LC50 with Colinus virginianus (acute, diet, mortality) of more than 1370 mg/kg-day.
`CC(C)(C)C(O)(CCc1ccc(Cl)cc1)Cn1cncn1` (stereo not drawn) [Tebuconazole]: the LC50 in the data set on Tagia sp. (acute, duration: 14 days, mortality) was 1380 mg/kg; with Colinus virginianus (acute, diet, mortality) it was more than 703 mg/kg-day; in the data set on Oncorhynchus mykiss (acute, duration: 96 hours, mortality) it was 4.4 µg/mL (≈ 14.3 µM). Also, the NOEC with Tagia sp. (chronic/long-term, duration: 8 weeks, reproduction) turned out to be 10 mg/kg; in the data set with Daphnia magna, 0.01 mg/L; in the data set on Hypoaspis aculeifer, 50 mg/kg; in the data set with Oncorhynchus mykiss (chronic/long-term, duration: 83 days, growth), 0.012 mg/L. For the same compound, the LD50 in the data set with Apis mellifera is more than 83 µg/piece; with Rattus norvegicus, 1700 mg/kg-day; in the data set on Colinus virginianus (acute, mortality), 1990 mg/kg-day. Moreover, the lowest-observed-adverse-effect level (LOAEL) – broadly, the lowest dose or exposure tested at which an adverse effect was seen – with Mus musculus worked out at 10 mg/kg-day. Moreover, the NOEL came to 10 mg/kg-day with Rattus norvegicus (reproduction developmental, diet, body weight); 5.8 mg/kg-day in the data set on Colinus virginianus (setting [1]); 10 mg/kg-day in the data set with Oryctolagus sp.. This compound also returned an LOEL with Colinus virginianus (setting [1]) of 12.4 mg/kg-day. Moreover, in the data set with Canidae, the NOAEL (commonly the highest tested level that showed no adverse finding) was found to be 3 mg/kg-day.
